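Test compounds were applied to cells in 96-well plates for 48 hours at 5 doses. The concentration for 50% growth inhibition is given as GI50.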 Activity calls are given as the source filed them. Cut-off read from the data, not from the text of the source: active = GI50 up to about 1.1 µM and inactive = higher.
How the values were obtained:
Assay in all cases: NCI-60 cell line screen, 48 h
786-0 = tested on: 786-0
A498 = tested on: A498
ACHN = tested on: ACHN
BT-549 = tested on: BT-549
CCRF-CEM = tested on: CCRF-CEM
DU-145 = tested on: DU-145
EKVX = tested on: EKVX
HCT-15 = tested on: HCT-15
Hs-578T = tested on: Hs-578T
LOX IMVI = tested on: LOX IMVI
MDA-MB-231 = tested on: MDA-MB-231
NCI/ADR-RES = tested on: NCI/ADR-RES
OVCAR-4 = tested on: OVCAR-4
RXF 393 = tested on: RXF 393
SK-MEL-28 = tested on: SK-MEL-28
T47D = tested on: T47D
TK-10 = tested on: TK-10
UACC-257 = tested on: UACC-257
UACC-62 = tested on: UACC-62

| Compound | GI50 (786-0) | GI50 (A498) | GI50 (ACHN) | GI50 (BT-549) | GI50 (CCRF-CEM) | GI50 (DU-145) | GI50 (EKVX) | GI50 (HCT-15) [µM] | GI50 (Hs-578T) | GI50 (LOX IMVI) | GI50 (MDA-MB-231) | GI50 (NCI/ADR-RES) | GI50 (OVCAR-4) | GI50 (RXF 393) | GI50 (SK-MEL-28) | GI50 (T47D) | GI50 (TK-10) | GI50 (UACC-257) | GI50 (UACC-62) |
| --- | --- | --- | --- | --- | --- | --- | --- | --- | --- | --- | --- | --- | --- | --- | --- | --- | --- | --- | --- |
| COc1ccc2c(c1)-c1nn(CCN(C)C)c3ccc(C(=O)NCCCN(C)CCCNC(=O)c4ccc5c6c(c7cc(OC)ccc7nc46)NN5CCN(C)C)c(c13)N2 | 0.0313 µM (active) | 0.0859 µM (active) | 0.0607 µM (active) | 0.138 µM (active) | < 0.01 µM (active) | 0.0284 µM (active) | 0.143 µM (active) | 0.251 | 0.201 µM (active) | 0.0192 µM (active) | 0.114 µM (active) | 1.7 µM (inactive) | 0.0352 µM (active) | 0.0366 µM (active) | 0.0561 µM (active) | 0.158 µM (active) | 0.102 µM (active) | 0.0702 µM (active) | 0.0692 µM (active) |
| CC(C)/C(Cl)=N/OC(NC(=O)Nc1ccc(Cl)c(Cl)c1)(C(F)(F)F)C(F)(F)F | 8.77 µM (inactive) | 18.2 µM (inactive) | 12.2 µM (inactive) | 11.5 µM (inactive) | 2.16 µM (inactive) | 16.7 µM (inactive) | 19.4 µM (inactive) | 13.2 | 28.6 µM (inactive) | 4.51 µM (inactive) | 15.5 µM (inactive) | 14.6 µM (inactive) | 13 µM (inactive) | 3.42 µM (inactive) | 19.2 µM (inactive) | 7.64 µM (inactive) | 17.4 µM (inactive) | 13.2 µM (inactive) | 16 µM (inactive) |
| S=C(N/N=C\c1ccccn1)N(Cc1ccccn1)Cc1ccccn1 | 0.697 µM (active) |  | 0.316 µM (active) | 1.93 µM (inactive) | < 0.019 µM (active) | 2.29 µM (inactive) | 0.721 µM (active) | 0.622 | 16 µM (inactive) | 0.646 µM (active) | 0.419 µM (active) | 1.19 µM (inactive) | 0.91 µM (active) | 10.4 µM (inactive) | 1.22 µM (inactive) | 1.46 µM (inactive) | 0.637 µM (active) | 4.82 µM (inactive) | 2.08 µM (inactive) |
| O=c1oc2c(Cl)cc(Cl)cc2cc1-c1cn2c(n1)sc1ccccc12 | 32.9 µM (inactive) |  | 65.3 µM (inactive) | 28.6 µM (inactive) | 17.3 µM (inactive) | 74 µM (inactive) | 65.8 µM (inactive) | 28.6 | > 100 µM (inactive) | 60.3 µM (inactive) | 28.4 µM (inactive) | > 100 µM (inactive) | 47.6 µM (inactive) | 31.2 µM (inactive) | > 100 µM (inactive) | 49.8 µM (inactive) | > 100 µM (inactive) | > 100 µM (inactive) | 35.9 µM (inactive) |
| C=CCC1(O)c2cccc(O)c2C(=O)c2cccc(O)c21 (configuration not stated) | 19.3 µM (inactive) | 13.3 µM (inactive) | 22.8 µM (inactive) | 16.8 µM (inactive) |  | 17.6 µM (inactive) | 17.4 µM (inactive) | 12.2 | 14.9 µM (inactive) | 16.3 µM (inactive) | 21.1 µM (inactive) | 11.2 µM (inactive) | 29.2 µM (inactive) | 15.7 µM (inactive) | 20.5 µM (inactive) | 4.12 µM (inactive) | 23.5 µM (inactive) | 13 µM (inactive) |  |
| Cc1ccc2c(=O)cc(Cc3csc4ccccc34)[nH]c2n1 | 46.2 µM (inactive) | 32.3 µM (inactive) |  | 23.3 µM (inactive) | 41.4 µM (inactive) | 50.9 µM (inactive) | 29.2 µM (inactive) | 12.1 | 12.7 µM (inactive) | 17.5 µM (inactive) | 52.5 µM (inactive) | 19.8 µM (inactive) | 21.1 µM (inactive) | 25.3 µM (inactive) | 50.5 µM (inactive) | 19 µM (inactive) | 53.5 µM (inactive) | 38.6 µM (inactive) | 27 µM (inactive) |
| O=S(=O)(O)c1cc(S(=O)(=O)O)c2cc(/N=N/c3c(O)ccc4ccccc34)ccc2c1 | > 100 µM (inactive) |  | > 100 µM (inactive) | > 100 µM (inactive) | > 100 µM (inactive) | > 100 µM (inactive) | > 100 µM (inactive) | > 100 | > 100 µM (inactive) | > 100 µM (inactive) | > 100 µM (inactive) | > 100 µM (inactive) | > 100 µM (inactive) | > 100 µM (inactive) | > 100 µM (inactive) | > 100 µM (inactive) | > 100 µM (inactive) | > 100 µM (inactive) | > 100 µM (inactive) |
